Patent publication US11058707B2, “Methods for treating ischemic heart disease by targeting TRPV4” (Northeast Ohio Medical University, priority 2018, dated 2021)

How the values were obtained:
[1] = test system: human ventricular fibroblasts; experiment: TGF-b1-induced differentiation of human ventricular fibroblasts to myofibroblasts (immunofluorescence, α-SMA); type: cell-based; conditions: AB1+TGFβ1 vs TGFβ1; immunofluorescence actin/α-SMA/DAPI (FIG. 5A-5C)
WT mice subjected to MI = experiment: Myocardial infarction (LAD ligation) in WT mice treated orally with TRPV4 antagonist; echocardiography and histology; type: in vivo
Procedure: WT mice were subjected to MI by ligating LAD. MI mice were then given orally a specific TRPV4 antagonist, GSK2193874 (GSK2) (10 mg/Kg/day) or vehicle (0.01% DMSO/water).
Orally active TRPV4 antagonist GSK2193874 was given immediately after MI surgery and followed for 5 weeks.

[2] = given immediately after MI surgery, followed for 5 weeks, vs WT or vehicle treated mice

| SMILES | TGF-b1-induced differentiation of human ventricular fibroblasts [1] | cardiac fibrosis (Masson's trichrome staining) at the infarct zone and remote zone (WT mice subjected to MI; GSK2 treated-MI hearts vs Vehicle treated-MI hearts (FIG. 16)) | ejection fraction (WT mice subjected to MI; [2]) | fractional shortening (WT mice subjected to MI; [2]) | cardiac function: ejection fraction (WT mice subjected to MI; post-MI WT mice, 10 mg/Kg/day orally vs vehicle (0.01% DMSO/water), echocardiography (FIG. 11A)) | cardiac function: fractional shortening (WT mice subjected to MI; post-MI WT mice, 10 mg/Kg/day orally vs vehicle (0.01% DMSO/water), echocardiography (FIG. 11B)) |
| --- | --- | --- | --- | --- | --- | --- |
| CC(C)NCCN(C(C)C)S(=O)(=O)c1ccc(Cl)cc1Cl [AB159908, 2,4-dichloro-N-isopropyl-N-(2-isopropylaminoethyl)benzenesulfonamide] | attenuation |  |  |  |  |  |
| O=C(NC1(c2ccccc2)CC1)c1c(CN2CCC(N3CCCCC3)CC2)c(-c2cccc(C(F)(F)F)c2)nc2cc(Br)ccc12 [GSK2193874, 3-([1,4′-bipiperidin]-1′-ylmethyl)-7-bromo-N-(1-phenylcyclopropyl)-2-[3-(trifluoromethyl)phenyl]-4-quinolinecarboxamide] |  | significantly reduced | preserved | preserved | preserved | preserved |
